What all share (assay): NCI anticancer screen, dose series, 48 h
Test [1] has as its system KM12.
The subject of test [2] is UACC-257.
In test [3] the test system is K562.
Test [4] concerns MOLT-4.
Test [5] has as its system OVCAR-4.
Test [6] deals with U-251.
Test [7] has as its system OVCAR-3.
For test [8], the system named is SW-620.
Test [9] concerns EKVX.
The subject of test [10] is HL-60.
Test [11] concerns SR.
Test [12] has as its system LOX IMVI.
In test [13] the test system is SK-OV-3.
The test system of test [14] is NCI-H460.
Test [15] deals with SK-MEL-5.
The test system of test [16] is HCT-116.
The test system of test [17] is UACC-62.
In test [18] the test system is CAKI-1.
Test [19] has as its system IGROV-1.
Test [20] has as its system CCRF-CEM.

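How tested: cells in 96-well plates exposed to compound for 48 hours at five concentrations. At the GI50, growth is halved.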 Active and inactive are the calls of the source. Cut-off read from the data, not from the text of the source: active = GI50 up to about 1.1 µM and inactive = higher. Where only a bound is given, the exact number is not on record here.

As for `O=C(CCc1ccc(O)c(O)c1)OCCc1ccccc1`, the GI50 was > 100 µM (inactive) in test [1]; > 82.2 µM (inactive) in test [2]; 20.4 µM (inactive) in [3]; 15.1 µM (inactive) in test [4]; 29.6 µM (inactive) in test [5]; > 100 µM (inactive) in [6]. In addition, the GI50 in test [7] was 29.6 µM (inactive); in test [8], 31.1 µM (inactive); in [9], > 100 µM (inactive); in [10], 3.85 µM (inactive); in test [11], 17.6 µM (inactive); in test [12], 22.5 µM (inactive). Besides, the GI50 is > 100 µM (inactive) in test [13]; > 100 µM (inactive) in test [14]; 42.2 µM (inactive) in [15]; 44.6 µM (inactive) in [16]; 45.4 µM (inactive) in [17]; 78.3 µM (inactive) in test [18]. Also, the GI50 in test [19] is 54.1 µM (inactive); in test [20] it was 4.86 µM (inactive).
On to `COC(=O)C(=O)C(C(=O)OC)C(=O)C(=O)Nc1cc(Cl)c(Cl)cc1Cl` (configuration not stated), for which the GI50 in [1], in test [2], in [3], in test [4], in test [5] and in [6] was > 100 µM (inactive) in each case. For the same molecule, the GI50 is > 100 µM (inactive) in test [7]; > 100 µM (inactive) in test [9]; > 100 µM (inactive) in test [10]; 24.8 µM (inactive) in test [11]; 61 µM (inactive) in test [12]; > 100 µM (inactive) in test [13]. Besides, the GI50 in test [14] was > 100 µM (inactive); in test [15], > 100 µM (inactive); in test [16] it was 22.4 µM (inactive); in [17], > 100 µM (inactive); in [18], > 100 µM (inactive); in test [19], > 100 µM (inactive). Besides, the GI50 in test [20] is 31.6 µM (inactive).
For the molecule `O=C1CSC(c2ccc(Cl)cc2Cl)N1c1ccc(Oc2ccc(Cl)cc2)c(Cl)c1` (configuration not stated), the GI50 in test [1] was 20.2 µM (inactive); in test [2] it was 37.1 µM (inactive); in test [3], 26.2 µM (inactive); in [4], 24.3 µM (inactive); in test [5], 23.8 µM (inactive); in test [6], 31.8 µM (inactive). Also, the GI50 was 17.5 µM (inactive) in test [7]; 36.5 µM (inactive) in test [8]; 23.3 µM (inactive) in [9]; 16.4 µM (inactive) in [10]; 16.3 µM (inactive) in test [11]; 16.7 µM (inactive) in test [12]. Also, the GI50 is 30.7 µM (inactive) in [13]; 27.4 µM (inactive) in [14]; 19 µM (inactive) in test [15]; 16.9 µM (inactive) in [16]; 21.9 µM (inactive) in [17]; 22.4 µM (inactive) in [18]. The GI50 in [19] is 28.1 µM (inactive); in [20], 13.5 µM (inactive).
Turning to `O=C(CC(=O)Nc1ccc(C(=O)O)cc1)Nc1ccc(C(=O)O)cc1`, the GI50 in test [1], in test [2], in test [3], in test [4], in test [5] and in test [6] was > 100 µM (inactive) each time. The GI50 in test [7], in [8], in [9], in test [10], in test [11] and in [12] was > 100 µM (inactive) in each case. Also, the GI50 in test [13] is > 100 µM (inactive); in test [14], > 100 µM (inactive); in [15], > 100 µM (inactive); in test [16] it was > 100 µM (inactive); in test [17] it was 37.6 µM (inactive); in test [18] it was > 100 µM (inactive). The GI50 in test [19] and in [20] was > 100 µM (inactive) throughout.
For `C=C(Nc1ccc(OC)cc1OC)C(=O)Cc1cccc[n+]1[O-]`, the GI50 in test [1], in test [2], in [3], in test [4], in test [5] and in test [6] was > 100 µM (inactive) each time. Also, the GI50 in test [7], in [8], in test [9], in test [10], in [11] and in test [12] was > 100 µM (inactive) in each case. Also, the GI50 in test [13], in test [14], in test [15], in [16], in test [17] and in test [18] was > 100 µM (inactive) throughout. Moreover, the GI50 in test [19] and in [20] was > 100 µM (inactive) throughout.
Turning to `CCOC(=O)C1C(=O)CN2CCc3c([nH]c4ccccc34)C12C(=O)OCC` (configuration not stated), the GI50 in [1], in test [2], in test [3], in [4], in test [5] and in test [6] was > 100 µM (inactive) throughout. The GI50 in [7], in test [8], in test [9], in test [10], in test [11] and in test [12] was > 100 µM (inactive) in each case. The GI50 in [13], in [14], in test [15], in [16], in [17] and in test [18] was > 100 µM (inactive) throughout. Further, the GI50 in test [19] and in [20] was > 100 µM (inactive) throughout.
On to `O=[N+]([O-])/C=C/c1cn(CCCCCCCCn2cc(/C=C/[N+](=O)[O-])c3ccccc32)c2ccccc12`, for which the GI50 in test [1], in [2], in test [3], in test [4], in test [5] and in test [7] was > 10 µM (inactive) each time. Further, the GI50 in test [8] is > 10 µM (inactive); in test [9], > 10 µM (inactive); in test [10] it was > 10 µM (inactive); in [11], > 10 µM (inactive); in test [12], 3.51 µM (inactive); in [13], > 10 µM (inactive). Moreover, the GI50 in test [14] was > 10 µM (inactive); in [15] it was > 10 µM (inactive); in test [16] it was 0.211 µM (active); in [17], > 10 µM (inactive); in [18], 0.689 µM (active); in test [19] it was > 10 µM (inactive). Besides, the GI50 in [20] is > 10 µM (inactive).
Take `CC(=O)c1cccc(NC(=O)C(=O)C(C(=O)c2ccccc2F)C2OC(=O)c3ccccc32)c1` (configuration not stated): the GI50 in [1] was 39.7 µM (inactive); in test [2], 73.5 µM (inactive); in test [3], 32.1 µM (inactive); in test [4], 22.8 µM (inactive); in [5], 32.5 µM (inactive); in test [6], 19.8 µM (inactive). In addition, the GI50 is 99.5 µM (inactive) in test [8]; 43.4 µM (inactive) in [9]; 24 µM (inactive) in test [10]; 9.2 µM (inactive) in [11]; 19.5 µM (inactive) in test [12]; 35.4 µM (inactive) in test [13]. The GI50 in test [14] was 30.9 µM (inactive); in test [15], 64 µM (inactive); in [16], 33.3 µM (inactive); in test [17], 34.6 µM (inactive); in test [18], 65.3 µM (inactive); in [19] it was 74.8 µM (inactive). The GI50 in [20] is 14.8 µM (inactive).
`Cc1cccc(C)c1NC(=O)C(=O)C1C(=O)N(c2ccccc2)N=C1N` (configuration not stated): the GI50 in test [1], in [2], in test [3], in test [4], in [5] and in [6] was > 100 µM (inactive) throughout. In addition, the GI50 in test [7], in test [8], in test [9], in test [10], in test [11] and in test [12] was > 100 µM (inactive) throughout. Further, the GI50 in test [13], in test [14], in test [15], in test [16], in test [17] and in test [18] was > 100 µM (inactive) in each case. In addition, the GI50 in test [19] and in test [20] was > 100 µM (inactive) each time.
Consider `COC(=O)C1CCC(=O)N1C(c1ccc2c(c1)OCO2)c1cc(OC)c(OC)c(OC)c1` (configuration not stated), for which the GI50 in test [1], in [2], in test [3], in test [4], in test [5] and in test [6] was > 100 µM (inactive) throughout. Besides, the GI50 in test [7], in test [8], in test [9], in test [10], in [11] and in test [12] was > 100 µM (inactive) in each case. Besides, the GI50 in test [13], in [14], in test [15], in test [16], in [17] and in test [18] was > 100 µM (inactive) throughout. Besides, the GI50 in test [19] and in test [20] was > 100 µM (inactive) throughout.

Values taken from ChEMBL document CHEMBL1201862, “PubChem BioAssay data set” (2004).
